# Test results from publication PMC5841658, “Anti-cancer characteristics and ototoxicity of platinum(II) amine complexes with only one leaving ligand” (PLoS ONE, 2018).
# Several values for one entry are separate records, joined by “and”; a condition that tells them apart may be missing. Equal values may be shown once.
# Columns and labels:
# [1] = tested on: U-138 MG (HTB-16) glioblastoma cancer cell line; experiment: MTT cellular viability assay, HTB16; assay type: cell-based; settings: HTB16 (glioma), 72 hours, ± standard deviation
# Procedure: (§1) Cell lines were obtained from American Type Culture Collection (ATCC, Manassas, VA). […] Caco-2 (ATCC: HTB-37) colorectal cancer was grown in EMEM with 20% FBS and 1% penicillin/streptomycin. All cell lines were incubated at 37°C in 5% CO2 with passaging every 4–7 days. Cell culture media and supplements were obtained from ATCC, Atlanta Biologicals (Flowery Branch, GA), Mediatech (Tewksbury, MA), Fisher Scientific (Waltham, MA), Gibco (Gaithersburg, MD) and Sigma-Aldrich.
# (§2) The MTT (3-(4,5-dimethylthiazol-2-yl)-2,5-diphenyltetrazolium bromide) cellular viability assay was performed in all three cancer cell lines and the non-cancer cell line. Following a protocol adapted from, cells were seeded at 5,000 cells per well in 96-well plates and incubated at 37°C in 5% CO2 in F-12K Medium or EMEM with FBS supplementation and 1% penicillin/streptomycin for 24 hours. Then, wells were treated in replicates of six according to a concentration series (500, 50, 5, 0.5, 0.05 μM) of specific platinum complexes for 72 hours. A negative control (media only), positive control (Triton X-100) and series of blanks were simultaneously performed. The MTT assay was run for 2 hours, then well contents were rapidly evacuated out and all wells were treated with MTT solubilization solution [10% Triton X-100 in acidic (0.1N HCl) isopropanol] for 15 minutes before the plates were read using a BioTek Synergy HT microplate plate reader (570 nm and 690 nm absorbance wavelengths). Reagents, cell culture media and supplements were obtained from ATCC, Atlanta Biologicals, Mediatech, Fisher Scientific, Gibco and Sigma-Aldrich.
# (§3) GraphPad Prism v6 (La Jolla, CA) was used for all statistical analysis. Nuclear fraction platinum uptake as a total percent of combined nuclear and cytosolic uptake was analyzed using a one-way ANOVA (Brown-Forsyth test; p ≤ 0.05). IC50 values were calculated in Prism using the sigmoidal, 4PL, x is log(concentration) analysis feature or were calculated from Prism derived values using the equation y = mx + b. MTT assay standard deviation values were calculated using ED50plus v1.0 online software. AEP threshold data were analyzed by two-way ANOVA (Dunnett’s multiple comparisons test; p ≤ 0.05) and hair cell quantification data by two-way ANOVA (Tukey’s multiple comparisons test; p ≤ 0.05). AEP temporary threshold shifts (TTS) were calculated by subtracting the mean vehicle threshold for each frequency from each treatment threshold. TTS data were averaged across frequencies for each treatment and were analyzed by one-way ANOVA (Tukey’s multiple comparisons test; p ≤ 0.05).
# [2] = tested on: IMR-90 lung fibroblast control cell line; experiment: MTT cellular viability assay, IMR90; assay type: cell-based; settings: IMR90 (fibroblast, non-cancer), 72 hours, ± standard deviation
# Procedure: as §1, §2, §3
# [3] = tested on: zebrafish saccule hair cells; experiment: Hair cell quantification, saccule; assay type: in vivo, Danio rerio; settings: 25 mg/kg i.p., 48 hours; for effect on hair cell density in four regions of the saccule compared to vehicle: 5, 25, 50, 75% regions
# Procedure: Zebrafish (Danio rerio) were purchased from a commercial supplier (Segrest Farms, Gibsonton, FL) and maintained in the animal facility of Western Kentucky University according to a protocol approved by the Institutional Animal Care and Use Committee. All zebrafish used in this study were a mix of male and female adult animals at least 6 months of age and were maintained according to standard methods.
# After injection, fish were returned to holding tanks for either 24 or 48 hours and then subjected to hearing tests followed by hair cell quantification analysis.
# Hair cell counts were performed from specific regions of the zebrafish saccule and utricle using established procedures. […] Prior to dissection, heads were rinsed three times for 10 minutes each at room temperature in phosphate buffer (pH 7.4, LabChem, Pittsburgh, PA) and the inner ear epithelia (saccule and utricle) were then carefully dissected out and trimmed. […] Tissue samples were then placed on glass slides and nuclei were labelled with Prolong Gold antifade reagent (4’,6-diamidino-2-phenylindole [DAPI], Life Technologies, Carlsbad, CA) and a cover-slip was placed over the samples for microscopy.
# Saccule and utricle samples were viewed through the FITC filter of a Zeiss Axioplan2 epifluorescence microscope (Carl Zeiss, Jena, Germany) at 20X magnification and were then photographed using an AxioCam MRm camera. Cell counts were made from four regions of the saccule (5%, 25%, 50%, 75%) along the rostral-caudal length of the organ by placing a 50 μm x 50 μm box at each location and using the microscope cell counter feature. In the utricular samples, cell counts were made from three equidistant 50 μm x 50 μm boxes in both the extrastriolar and striolar regions.
# as §3
# 5'-GMP = experiment: Kinetic 5'-GMP assay (1H NMR, rate of reaction of platinum complex with 5'-GMP); assay type: biochemical; settings: D2O, pH 7, 25°C; for Rate constant for the reaction of 5'-GMP with the platinum(II) complex: excess platinum, fitted first order in each reactant
# Procedure: The reaction of each platinum compound with 5'-GMP (Acros) was monitored using ^1H NMR spectroscopy to observe the disappearance of the H8 signal of the unreacted 5'-GMP at ≈8 ppm and the appearance of a product signal ≈0.5–1.0 ppm downfield of the unreacted 5'-GMP. The reaction was conducted with excess platinum compound present in each case. A 10 mM solution of 5'-GMP and a 10–20 mM solution of the platinum(II) compound were prepared separately in D2O. The pH (uncorrected for the effects of deuterium) of each solution was adjusted to 7, and the samples were equilibrated to 25°C in a water bath. Aliquots of the two solutions were combined and placed in an NMR tube; typically, the final concentrations of platinum was 5–18 mM and the concentration of 5'-GMP was 1 mM (except for the [Pt(dien)Cl]^+ reaction, where it was 0.5 mM). Samples were maintained at 25°C throughout the NMR experiment. The H8 resonances were integrated and the data was fitted to an equation that was first order in each reactant using DynaFit to determine rate constants. At least two runs were conducted for each platinum compound using fresh samples.
Compound,IC50 [1] [µM],IC50 [2] [µM],effect on hair cell density in four regions of the saccule compared to vehicle [3],Relative rate (rate constant divided by the rate constant for [Pt(dien)Cl]^+) (5'-GMP),Rate constant for the reaction of 5'-GMP with the platinum(II) complex (5'-GMP),"saccule hair cell density, % of control ([3]; 50% location along rostral-caudal axis)",fold reduction in the rate relative to [Pt(dien)Cl]^+ (5'-GMP),Rate constant for the reaction of 5'-GMP with the platinum(II) complex (5'-GMP; listed as phenanthriplatin)
"[Cl][Pt-2]12[NH2+]CC[NH+]1CC[NH2+]2 (stereo not shown) [[Pt(dien)Cl]^+, Pt(diethylenetriamine)Cl]",209 ± 42.3,56 ± 6.1,no significant reduction in hair cell bundles,1,3.9 ± 0.1 x 10^−1 M^-1s^-1 and 3.9 (+/- 0.1) x 10^−1 M^-1s^-1,,,
phenanthriplatin,2.41 ± 0.11,1.24 ± 0.48,reduction only at 50%,0.041,1.63 (+/- .02) x 10^−2 M^-1s^-1,64.8 % of control,~ 25 fold,1.63 ± 0.02 x 10^-2 M^-1s^-1
